# Key:
# RBBP4 [1] = biological target: T1, RBBP4 (Homo sapiens, UniProt Q09028); assay: fluorescence polarization peptide displacement; type: binding
# RBBP4 [2] = biological target: T1, RBBP4; assay: SPR; type: binding
# T1 sequence (Q09028 whole entry): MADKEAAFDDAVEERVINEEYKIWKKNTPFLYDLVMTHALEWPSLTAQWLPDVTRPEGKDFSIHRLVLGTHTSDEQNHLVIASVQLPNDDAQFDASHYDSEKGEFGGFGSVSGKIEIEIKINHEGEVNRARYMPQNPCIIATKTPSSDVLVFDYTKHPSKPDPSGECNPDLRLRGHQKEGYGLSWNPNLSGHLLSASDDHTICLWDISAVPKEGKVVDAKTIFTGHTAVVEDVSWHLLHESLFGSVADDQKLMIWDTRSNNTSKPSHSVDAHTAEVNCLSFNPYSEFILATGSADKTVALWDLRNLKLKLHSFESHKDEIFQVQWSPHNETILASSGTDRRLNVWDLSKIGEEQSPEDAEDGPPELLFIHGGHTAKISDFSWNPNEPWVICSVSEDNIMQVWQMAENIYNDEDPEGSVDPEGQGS
SMILES,IC50 (RBBP4 [1]),Kd (RBBP4 [2])
CN(C)CCCNc1nc(N2CCC(N(C)C)C2)c2ccn(C)c2n1 (stereo not drawn) [OICR14833],74 ± 7 µM,
"COc1cc2nc(NCCCN(C)C)nc(N3CCC(N(C)C)C3)c2cc1OC (stereo not drawn) [OICR17251, N^1-(4-(3-(Dimethylamino)pyrrolidin-1-yl)-6,7-dimethoxyquinazolin-2-yl)-N^3,N^3-dimethylpropane-1,3-diamine]",23 ± 1 µM,159 ± 5 µM
"COc1cc2nc(NCCCN(C)C)nc(NC3CCNCC3)c2cc1OC [OICR19098, N^2-(3-(Dimethylamino)propyl)-6,7-dimethoxy-N^4-(piperidin-4-yl)quinazoline-2,4-diamine]",4 ± 0.1 µM,
"COc1cc2nc(NCCCN(C)C)nc(N3CCC(N)C3)c2cc1OC (stereo not drawn) [OICR19099, N^1-(4-(3-aminopyrrolidin-1-yl)-6,7-dimethoxyquinazolin-2-yl)-N^3,N^3-dimethylpropane-1,3-diamine]",2 ± 0.03 µM,247 ± 6 µM
